Data published in patent US20250382346A1, “NEURONAL PROMOTERS AND USES THEREOF” (priority 2023, published 2025).

Legend:
rM3Ds = biological target: T1, rM3Ds (Rattus norvegicus, UniProt P08483, A177S/A238G/A489L/DEL261-437/DEL441-478/E258S/I253V/I483M/INS256[…]/K178L/K182A/K255R/K484R/K486H/L173F/L482A/M480V/R171S/R176Q/R179M/S481M/T174R/T181R/T257A/Y148C); test: Chemogenetic manipulation of BG direct pathway in mice with rM3Ds: rotations, nigral c-Fos; type: in vivo; parameters: 2A-EYFP (C); expressed in transfected cells; host or cells: neurons (striatal D1-MSNs) of mice or cynomolgus macaques, transduced in vivo by nigral AAV8R12-G88P7-rM3Ds-2A-EYFP; settings: for contraversive rotations (FIG. 7A), mean±SEM: AAV8R12-G88P7-rM3Ds-2A-EYFP nigral, n=8; for rotation behavior (FIG. 7C), mean±SEM: control vector AAV8R12-G88P7-EYFP, n=5, no effect
T1 sequence (P08483 with tags, fused parts or gaps Y148C/R171S/L173F/T174R/R176Q/A177S/K178L/R179M/T181R/K182A/A238G/I253V/K255R/INS256[…]/T257A/E258S/DEL261-437/DEL441-478/M480V/S481M/L482A/I483M/K484R/K486H/A489L): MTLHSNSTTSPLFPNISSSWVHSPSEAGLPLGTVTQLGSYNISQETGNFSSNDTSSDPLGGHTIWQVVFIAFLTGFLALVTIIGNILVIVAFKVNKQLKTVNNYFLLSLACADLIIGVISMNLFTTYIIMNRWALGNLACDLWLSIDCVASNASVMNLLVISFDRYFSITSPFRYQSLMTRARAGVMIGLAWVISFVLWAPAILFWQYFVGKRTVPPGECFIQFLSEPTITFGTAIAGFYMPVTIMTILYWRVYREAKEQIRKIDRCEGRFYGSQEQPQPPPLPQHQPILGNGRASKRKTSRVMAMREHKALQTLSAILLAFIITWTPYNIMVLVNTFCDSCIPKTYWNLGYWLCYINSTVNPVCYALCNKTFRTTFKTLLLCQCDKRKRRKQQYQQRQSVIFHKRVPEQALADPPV
Method: Mice were anesthetized with sodium pentobarbital (Nembutal; 80 mg/kg, i.p.), and then placed into a stereotaxic device (KOPF). Eye cream was applied on both corneas to avoid dehydration. The skull above the targeted areas was thinned with a dental drill and carefully removed. Injections were conducted with a 10 μL syringe connected to a 33-Gauge needle (Neuros; Hamilton), using a microsyringe pump (Legato 130, KD Scientific). A total volume of 200 nL virus was injected into the SNr at a speed of 20 nL/min. The coordinates for the SNr were 3.4 mm posterior, 1.3 mm lateral, 4.8 mm ventral to the bregma.
Mice that were used in the behavioral experiments were then implanted with guide cannulas (KOPF) unilaterally aiming at the dorsomedial striatum (0.5 mm anterior, 1.5 mm lateral, 3.5 mm ventral to the bregma). The cannulas were fixed to the skull with dental cement. Stainless steel obturators were inserted into the guide cannulas and were replaced every other day to maintain the patency until infusions were made. Mice were allowed to recover from the surgery for at least 3 weeks before further studies.
To further optimize the system, an alternative chemogenetic effector that would potentially allow specific manipulation of the direct pathway compatible with systemic CNO infusions needed to be identified. […]. A different chemogenetic effector, rM3Ds, which uses cAMP as the second messenger and can effectively activate striatal MSNs, was used to avoid the activation of SNr neurons upon systemic CNO administration.
Together, these findings confirm that the approach we developed is a durable solution for selective activity modulation of D1-MSNs and the BG direct pathway.
Mice were individually handled for 10-20 seconds per day for at least 5 days to habituate them to the experimenter. The open field test was conducted in a test apparatus (50 cm×50 cm×50 cm) with an HD digital camera (Sony) positioned above the arena. On day one, mice were habituated to the apparatus for 10 minutes. On day 2, mice were administrated saline (0.1 mL i.p. or 200 nL intracranially [i.e.] through the guide cannulas). On day 3, mice were administrated with Clozapine-N-oxide (CNO, Hello Bio, HB1807; 0.3 mg/kg i.p. or 200 nL at 100 μM i.e.). All behavioral tests were conducted 30 minutes after injection. During the test, mice were allowed to freely explore the apparatus for 10 minutes. The behavioral data were analyzed with ANY-maze software (Stoelting Co.).

hM3Dq or rM3Ds = test: Locomotion test in macaques after nigral DREADD AAV and CNO; type: in vivo
Method: To guide the virus injection in SNr, a guide grid of multiple holes spaced by 1 mm was installed on each subject vertically above the SN. By filling vitamin E in these holes, the accurate coordinates for injection could be obtained from the T1-weighted MRI images (3T Tim Trio scanner, Siemens). Virus injections were performed in nine sites covering the whole SNr, and a total volume of 27 μL virus was unilaterally injected in the right SNr at the speed of 300 nL/min.
To intracranially administrate drug and/or perform electrophysiological recording, a recording chamber covering from anterior caudate to posterior GPi was fixed on the skull with 6 titanium screws and dental cement. Each subject was allowed to recover from the surgery for at least 6 weeks prior to further studies.
Locomotion Test: The locomotion tests for monkeys were conducted in a custom-made observation cage (100 cm×100 cm×100 cm). The top and front of the cage were made of toughened glass in order to gain a clear view for behavioral recording. Monkeys were habituated to the observation cage by placing them inside for 30 minutes on three separate days.
For monkeys injected with AAV8R12-G88P3-HA-hM3Dq, CNO was intracranially infused into the dorsomedial caudate through the recording chamber. To infuse while the animal was awake, the monkey was trained to sit in a primate chair specially designed with its head fixed to the primate chair by a mask made of thermoplastic materials. Injections were conducted through a 33-Gauge needle connected to a 250 μL syringe via a polyethylene pipe (Hamilton, Neuros). […] The needle was held for 5 minutes for drug diffusion before retraction. For monkeys injected with AAV8R12-G88P7-rM3Ds-2A-EYFP, CNO was infused via intramuscular injection (10 mg/kg). […] Videos capturing the subjects' behavior were recorded for at least 90 minutes. Animal behaviors from 30-90 minutes after saline/CNO infusion were further analyzed and quantified.
For rotation analysis, only movements that occurred lower than 30 cm on the z-axis were counted. To determine the direction of the rotation, we first computed the center for the rotation data in the x-y plane as (x0, y0) by averaging all data points, and then we computed the angle relative to (x0, y0) for each time point by the following formula:
where θi represents the rotating angle at time i, and (xi, yi) represents the x-y coordinate at time i. We then calculated the change of rotating angle as Δθi=θi−θi−1. For right nigral injections, when Δθ<0, the direction of the rotation was anticlockwise and was labeled as a contraversive rotation. When Δθ>0, the direction of the rotation was clockwise and was labeled as an ipsiversive rotation. The raw data were analyzed and plotted through a custom R package. Code is available on Github (github.com/chenyef/PD_ana/blob/main/Behavior_ana.txt).

For `C[N+]1([O-])CCN(C2=Nc3cc(Cl)ccc3Nc3ccccc32)CC1` [CNO, Clozapine-N-oxide], the “contraversive rotations (FIG. 7A), mean±SEM” value (rM3Ds; CNO i.p., saline 45.95±4.972) was 80.05±5.168, the “contraversive rotations (FIG. 7A), mean±SEM” value (rM3Ds; CNO intracranial, saline 58.31±4.742) was 80.77±4.187 and the “c-Fos+ cells in the SNr” value (rM3Ds; AAV8R12-G88P7-rM3Ds-2A-EYFP, intraperitoneal and intracranial CNO) was “did not increase the number of c-Fos+ cells in the SNr”. The “rotation behavior (FIG. 7C), mean±SEM” value (rM3Ds; CNO i.p., saline 48.68±7.203) was 46.88±7.497, the “rotation behavior (FIG. 7C), mean±SEM” value (rM3Ds; CNO intracranial, saline 41.11±12.73) was 34.55±7.536 and the “muscle tone, electromyogram recordings” value (hM3Dq or rM3Ds; following CNO infusions, macaques) was “increase in the muscle tone of the contralateral biceps brachii”. The “contraversive rotations (FIG. 10C), mean±SEM” value (hM3Dq or rM3Ds; hM3Dq (intracranial CNO) or rM3Ds (systemic CNO) macaques, n=4, saline 1.004±0.2667) was 6.649±1.662, the “velocity of ipsiversive rotations (FIG. 10H), mean±SEM” value (hM3Dq or rM3Ds; n=4 macaques, saline 37.43±3.264, not significant) was 41.37±6.566 and the “speed during contraversive rotations (FIG. 10G), mean±SEM” value (hM3Dq or rM3Ds; n=4 macaques, saline 38.42±5.465) was 46.98±6.669. For the same compound, the “time in the top portion of the observing cage (FIG. 10D), mean±SEM” value (hM3Dq or rM3Ds; n=4 macaques, saline 68.42±10.7) was 33.74±2.641, the “total distance (FIG. 10F), mean±SEM” value (hM3Dq or rM3Ds; n=4 macaques, saline 71.53±15.4, not significant) was 97.37±19.41 and the “immobile time (FIG. 10E), mean±SEM” value (hM3Dq or rM3Ds; n=4 macaques, saline 107.1±2.322, not significant) was 89.13±8.379.
